Data from patent US20260092061A1, “COMPOUNDS FOR TARGETED PROTEIN DEGRADATION” (Amphista Therapeutics Limited, priority 2022, published 2026).

Key:
BRD9 [1] = target: T1, BRD9 (Homo sapiens, UniProt Q9H8M2); assay: BRD9 degradation, HiBiT-BRD9 KI HEK293 (LgBiT) cells, NanoGlo Lytic Endpoint assay (Assay Protocol 1); type: cell-based; details: BRD9 degradation; for Dmax / Dmax at 1 µM: HEK293; for Dmax at 1 µM: 1 μM compound at 6 h of treatment, read-out: Assay 1 Dmax
T1 sequence (Q9H8M2 1-597): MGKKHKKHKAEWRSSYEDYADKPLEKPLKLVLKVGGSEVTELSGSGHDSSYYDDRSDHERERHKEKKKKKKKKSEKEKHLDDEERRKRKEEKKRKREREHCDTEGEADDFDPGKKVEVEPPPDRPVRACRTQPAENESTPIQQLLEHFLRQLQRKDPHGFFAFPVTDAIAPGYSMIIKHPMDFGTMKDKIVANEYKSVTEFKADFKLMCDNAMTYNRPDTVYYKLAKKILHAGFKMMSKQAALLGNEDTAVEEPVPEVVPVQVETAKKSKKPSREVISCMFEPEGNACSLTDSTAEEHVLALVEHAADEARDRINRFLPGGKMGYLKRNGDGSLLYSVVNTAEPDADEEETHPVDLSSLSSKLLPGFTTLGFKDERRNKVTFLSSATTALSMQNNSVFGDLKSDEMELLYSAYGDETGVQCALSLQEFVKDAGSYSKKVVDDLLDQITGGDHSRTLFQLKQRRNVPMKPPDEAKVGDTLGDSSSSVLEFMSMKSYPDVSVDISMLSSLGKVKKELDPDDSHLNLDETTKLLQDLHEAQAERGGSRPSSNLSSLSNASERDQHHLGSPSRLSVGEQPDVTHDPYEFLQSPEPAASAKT
Method in brief: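 HiBiT-tagged BRD9 knock-in HEK293 (LgBiT) cells exposed to compounds for 6 h at 37 °C, 5% CO2. Residual BRD9 measured by HiBiT lytic luminescence. % BRD9 remaining normalised to DMSO-treated cells (high) and no-cell wells (low).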

BRD9 [2] = target: T1, BRD9; assay: Degradation of BRD9 (IF), immunofluorescence in MV4-11 cells, 24 hours (Assay Protocol 2); type: cell-based; set-up: A suspension of MV4-11 cells (ATCC CRL-9591) was prepared; host or cells: MV4-11
Method in brief: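 % BRD9 remaining, scaled between DMSO (high) and 100 nM CFT-8634 (low) control wells, derives from mean Alexa 647 contrast in central nuclei by high-content imaging. MV4-11 cells had 24 h compound exposure at 37° C. before PFA fixation, Triton permeabilisation and anti-BRD9 E4Q3F immunostaining.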

[3] = Assay protocol 1, read-out: DC50
[4] = Assay protocol 1, read-out: Dmax
[5] = Assay protocol 2, BRD9 degradation, read-out: DC50
[6] = MV4-11, Assay protocol 2, BRD9 degradation, read-out: Dmax
[7] = Table 2, Assay Protocol 1, 6 h of treatment, read-out: Assay 1 DC50
[8] = MV4-11, 24 h, Table 2, BRD9 degradation (IF), Assay Protocol 2, MV4-11 cells, read-out: Assay 2 DCmax
[9] = Table 4, determined according to Assay Protocol 1, read-out: Dmax^1
[10] = Table 4, determined according to Assay Protocol 1, read-out: DC50^1
[11] = MV4-11, Table 4, BRD9 degradation, determined according to Assay Protocol 2, read-out: Dmax^2
[12] = Table 4, BRD9 degradation, determined according to Assay Protocol 2, read-out: DC50^2

Row | Compound | DC50 (BRD9 [1]; [3]) | Dmax (BRD9 [1]; [4]) | DC50 (BRD9 [2]; [5]) | Dmax (BRD9 [2]; [6]) | also measured
1 | COc1cc(-c2cn(C)c(=O)c(C)c2C)cc(OC)c1CN1CCN(Cc2cccc3c2CCN(C(=O)/C(C#N)=C/c2cc(C(F)(F)F)ccn2)C3C)CC1 (mixture of isomers) [Compound B50, (E/Z)-2-(5-((4-(2,6-dimethoxy-4-(1,4,5-trimethyl-6-oxo-1,6-dihydropyridin-3-yl)benzyl)piperazin-1-yl)methyl)-1-methyl-1,2,3,4-tetrahydroisoquinoline-2-carbonyl)-3-(4-(trifluoromethyl)pyridin-2-yl)acrylonitrile] | < 1.25 nM | 70 to 75% | 10 to 25 nM | > 75% | –
2 | COc1cc(-c2cn(C)c(=O)c(C)c2C)cc(OC)c1CN1CCCN(Cc2cccc3c2CCN(C(=O)/C(C#N)=C/C2(F)CC2)C3C)CC1 (single isomer, unassigned) [Compound A69, (E/Z)-2-(5-((4-(2,6-dimethoxy-4-(1,4,5-trimethyl-6-oxo-1,6-dihydropyridin-3-yl)benzyl)-1,4-diazepan-1-yl)methyl)-1-methyl-1,2,3,4-tetrahydroisoquinoline-2-carbonyl)-3-(1-fluorocyclopropyl)acrylonitrile] | – | – | – | – | Dmax at 1 µM (BRD9 [1]; Table 2, Assay Protocol 1): > 75%; DC50 (BRD9 [1]; [7]): 1.25 to 10 nM; Dmax (BRD9 [2]; [8]): 40 to 70%; DC50 (BRD9 [2]; Table 2, BRD9 degradation (IF), Assay Protocol 2, MV4-11 cells, read-out: Assay 2 DC50): 25 to 300 nM
3 | COc1cc(-c2cn(C)c(=O)c(C)c2C)cc(OC)c1CN1CC2CC(C1)N2Cc1cccc2c1CCN(C(=O)/C(C#N)=C/c1cccc(Br)n1)C2C (mixture of isomers) [Compound B7, (E/Z)-3-(6-bromopyridin-2-yl)-2-(5-((3-(2,6-dimethoxy-4-(1,4,5-trimethyl-6-oxo-1,6-dihydropyridin-3-yl)benzyl)-3,6-diazabicyclo[3.1.1]heptan-6-yl)methyl)-1-methyl-1,2,3,4-tetrahydroisoquinoline-2-carbonyl)acrylonitrile] | 1.25 to 10 nM | 40 to 70% | < 1.25 nM | 40 to 70% | –
4 | COc1cc(-c2cn(C)c(=O)c(C)c2C)cc(OC)c1CN1CCN(C(=O)[C@@H]2CN(C(=O)/C(C#N)=C/c3ccc(F)cc3)C[C@H]2C2CCCCC2)CC1 [Compound B211] | – | – | – | – | Dmax (BRD9 [1]; [9]): > 70%; DC50 (BRD9 [1]; [10]): > 200 nM; Dmax (BRD9 [2]; [11]): 50 to 70%; DC50 (BRD9 [2]; [12]): > 200 nM
5 | COc1cc(-c2cn(C)c(=O)c(C)c2C)cc(OC)c1CN1CCN(C(=O)[C@@H]2CN(C(=O)/C(C#N)=C/c3nccs3)C[C@H]2c2cccc(C)c2)CC1 [Compound B213] | – | – | – | – | Dmax (BRD9 [1]; [9]): 30 to 50%; Dmax (BRD9 [2]; [11]): 50 to 70%; DC50 (BRD9 [2]; [12]): > 200 nM
6 | COc1cc(-c2cn(C)c(=O)c(C)c2C)cc(OC)c1CN1CCN(C(=O)[C@@H]2CN(C(=O)/C(C#N)=C/c3nccs3)C[C@H]2C2CCCCC2)CC1 [Compound B209] | – | – | – | – | Dmax (BRD9 [1]; [9]): 30 to 50%; DC50 (BRD9 [1]; [10]): > 200 nM; Dmax (BRD9 [2]; [11]): > 70%; DC50 (BRD9 [2]; [12]): 25 to 200 nM
7 | COc1cc(-c2cn(C)c(=O)c(C)c2C)cc(OC)c1C(=O)N1CCN(Cc2cccc(C3CCCN3C(=O)/C(C#N)=C/C(C)(C)C)c2)CC1 (mixture of isomers) [Compound B46, (E/Z)-2-(2-(3-((4-(2,6-dimethoxy-4-(1,4,5-trimethyl-6-oxo-1,6-dihydropyridin-3-yl)benzoyl)piperazin-1-yl)methyl)phenyl)pyrrolidine-1-carbonyl)-4,4-dimethylpent-2-enenitrile] | 10 to 25 nM | > 75% | 1.25 to 10 nM | > 75% | –
8 | COc1cc(-c2cn(C)c(=O)c3cnccc23)cc(OC)c1CN1CCC(N(C)c2cccc3c2CCN(C(=O)/C(C#N)=C/C(C)(C)C)C3C)CC1 (stereo not drawn) [Compound A30] | – | – | – | – | Dmax at 1 µM (BRD9 [1]; Table 2, Assay Protocol 1): 40 to 70%; DC50 (BRD9 [1]; [7]): 1.25 to 10 nM; Dmax (BRD9 [2]; [8]): < 50%
9 | COc1cc(-c2cn(C)c(=O)c(C)c2C)cc(OC)c1CN(C)Cc1cccc(C2CCCN2C(=O)/C(C#N)=C/C(C)(C)C)c1 (mixture of isomers) [Compound B78, (E/Z)-2-(2-(3-(((2,6-dimethoxy-4-(1,4,5-trimethyl-6-oxo-1,6-dihydropyridin-3-ylbenzyl)methyl)amino)methyl)phenyl)pyrrolidine-1-carbonyl)-4,4-dimethylpent-2-enenitrile] | 1.25 to 10 nM | > 75% | 10 to 25 nM | > 75% | –
10 | COc1cc(-c2cn(C)c(=O)c(C)c2C)ccc1OC1CCN(Cc2cccc3c2CCN(C(=O)/C(C#N)=C/C(C)(C)C)C3C)CC1 (mixture of isomers) [Compound B127, (E/Z)-2-(5-((4-(2-methoxy-4-(1,4,5-trimethyl-6-oxo-1,6-dihydropyridin-3-yl)phenoxy)piperidin-1-yl)methyl)-1-methyl-1,2,3,4-tetrahydroisoquinoline-2-carbonyl)-4,4-dimethylpent-2-enenitrile] | 1.25 to 10 nM | > 75% | 1.25 to 10 nM | > 75% | –
11 | CCCC(c1ccc(C(=O)N(C)CCCCCCCCC(=O)N2CCN(Cc3c(OC)cc(-c4cn(C)c(=O)c(C)c4C)cc3OC)CC2)cc1)N(C)C(=O)/C(C#N)=C/c1nccs1 (mixture of isomers) [Compound B183, (E/Z)-4-(1-(2-cyano-N-methyl-3-(thiazol-2-yl)acrylamido)butyl)-N-(9-(4-(2,6-dimethoxy-4-(1,4,5-trimethyl-6-oxo-1,6-dihydropyridin-3-yl)benzyl)piperazin-1-yl)-9-oxononyl)-N-methylbenzamide] | 25 to 1000 nM | 40 to 70% | 1.25 to 10 nM | > 75% | –

Second part, led by results:

Row | DC50 (BRD9 [1]; [3]) | Dmax (BRD9 [1]; [4]) | DC50 (BRD9 [2]; [5]) | Dmax (BRD9 [2]; [6]) | Compound | also measured
12 | < 1.25 nM | > 75% | < 1.25 nM | > 75% | COc1cc(-c2cn(C)c(=O)c(C)c2C)cc(OC)c1CN1CCN(Cc2cccc3c2CCN(C(=O)/C(C#N)=C/C2(F)CC2)C3C)CC1 (mixture of isomers) [Compound B20, (E/Z)-2-(5-((4-(2,6-dimethoxy-4-(1,4,5-trimethyl-6-oxo-1,6-dihydropyridin-3-yl)benzyl)piperazin-1-yl)methyl)-1-methyl-1,2,3,4-tetrahydroisoquinoline-2-carbonyl)-3-(1-fluorocyclopropyl)acrylonitrile] | –
13 | 10 to 25 nM | 40 to 70% | 1.25 to 10 nM | > 75% | CCCC(c1cccc(CCC(=O)N2CCN(Cc3c(OC)cc(-c4cn(C)c(=O)c(C)c4C)cc3OC)CC2)c1)N(C)C(=O)/C(C#N)=C/c1nccs1 (mixture of isomers) [Compound B185, (E/Z)-2-cyano-N-(1-(3-(3-(4-(2,6-dimethoxy-4-(1,4,5-trimethyl-6-oxo-1,6-dihydropyridin-3-yl)benzyl)piperazin-1-yl)-3-oxopropyl)phenyl)butyl)-N-methy-3-(thiazol-2-yl)acrylamide] | –
14 | < 1.25 nM | > 75% | < 1.25 nM | > 75% | COc1cc(-c2cn(C)c(=O)c(C)c2C)cc(OC)c1CN1CCN(Cc2cccc3c2CCN(C(=O)/C(C#N)=C\C(C)(C)CF)C3C)C2(CC2)C1 (mixture of isomers) [Compound B125, (E/Z)-2-(5-((7-(2,6-dimethoxy-4-(1,4,5-trimethyl-6-oxo-1,6-dihydropyridin-3-yl)benzyl)-4,7-diazaspiro[2.5]octan-4-yl)methyl)-1-methyl-1,2,3,4-tetrahydroisoquinoline-2-carbonyl)-5-fluoro-4,4-dimethylpent-2-enenitrile] | –
